Laboratory results reported in US10485772B2, “Compositions for modulating cancer stem cells and uses therefor” (University of Canberra, priority 2014, dated 2019).

Assays:
MDA-MB 231 cells = assay: FACS analysis of CD44high/CD24low CSC-like subpopulation in Basal/metastatic model; format: cell-based, human; conditions: bisindolylmaleimide-I 4 μM
Experimental: Cells from each well/flask were harvested by means of trypsin treatment followed by two washes with PBS. Washed cells then re-suspended in an antibody cocktail consisting anti-CD44-APC, anti-CD24-PE antibodies (details in Table 5) and Hoechst 33258 dye (final dilution of 1:1000) (Invitrogen, Carlsbad, Calif.) in 1% FCS-PBS solution. Cells re-suspended in antibody cocktail were incubated for 20 minutes at 4° C. Cells were next washed twice with PBS and re-suspended in 1% FCS-PBS solution (volume based on cell number) and kept on ice until analyzed by FACS. Forward scatter (FSC) and side scatter parameters were selected with FITC fluorochrome excited by 488 nm argonion laser, PE fluorochrome excited by 488 nm and Hoechst fluorochrome excited by 350 nm helium-cadmium UV laser.
Flow Cytometry data was produced using either BD FACS LSR Flow Cytometer (Becton Dickinson Biosciences) or BD FACS Aria™ II Flow Cytometer (Becton Dickinson Biosciences) and analyzed using the data acquisition software CellQuest Pro (Becton Dickinson Biosciences) and FlowJo (Tree Star Inc., Ashland, Oreg.) software at the MCRF facility, JCSMR, ANU, Canberra, Australia. Single colour controls were used to set compensation parameters. Isotype controls were used for all corresponding primary antibodies in each experiment.
The adherent human mammary adenocarcinoma MCF-7 and MDA-MB-231 cells were cultured in low glucose DMEM (Gibco) and both supplemented with 10% FCS, 2 mM L-glutamine and 0.1% PSN antibiotics. Cells were stimulated with 0.65 ng/ml of phorbol 12-myristate 13-acetate (PMA) (Sigma-Aldrich) or 20 ng/ml of TGF-β (R&D systems) for the times indicated. For Bisindolylmaleimide-I (Calbiochem) or PKC-θ peptide inhibitor (Calbiochem) studies, cells were pre-treated with 1 μM or 30 μM of inhibitor respectively for 1 h prior to stimulation in MCF-7 cells. In case of MDA-MB-231, cells were treated with 4 μM or 30 μM Bisindolylmaleimide-I or PKC-θ peptide inhibitor respectively.
To separate CSC from non-CSC (NCSC), florescence activated cell sorting (FACS) was performed on single-cell suspensions that were stained with anti-CD44-APC (559942, BD Biosciences) and anti-CD24-PE antibodies (555428, BD Biosciences) along with Hoechst 33258 to monitor cell viability. As used throughout this work, CSC are defined by minority CD44^high/CD24^low, whereas NCSC are defined by rest of the cell populations.

[1] = tested on: PKC-θ chromatin association at CSC inducible gene promoters (uPAR, CD44); assay: ChIP assay with anti-PKC-θ antibodies in MCF-IM model; format: cell-based, human
Experimental: Between 1-5×10^6 Cells were harvested following various treatments according to the experimental requirement and re-suspended in 10 mL DMEM completer media at room temperature after counting then at Vi-CELL counter. Cells were then cross linked with freshly prepared 1% paraformaldehyde (PFA) (Analytical UNIVAR, Seattle, Wash.) for 10 minutes at room temperature with continuous but slow rotations on rotary wheel. Next, the reaction was quenched by the addition of 2M glycine solution (AnalaR, Merck, Darmstadt, Germany) to a get a final concentration of 125 mM and mixed further for 10 minutes at room temperature on the rotary wheel. Cells were then washed three times with 10 mL ice cold PBS and the cell pellet was either snap frozen on dry ice or used immediately afterwards. SDS Lysis Buffer (Upstate Biotechnology, Billerica, Mass.) was prepared by addition of 1× complete protease inhibitor solution (1 tablet dissolved in 1 mL DEPC water) (Roche Diagnostics, Mannheim, Germany) and cell pellet was then re-suspended in 250 μL of the in the SDS lysis buffer for 10 minutes at room temperature. Cells were sonicated (10 sec pulses for 2 minutes on 1 liter ice cold water mixed with ice, 70% maximum output) to shear the chromatin to obtain an average DNA fragment size of 250-500 bp using a Cole Palmer Ultrasonic processor (Cole Plamer, Vernon Hills, Ill.). […]

SMILES: CN(C)CCCn1cc(C2=C(c3c[nH]c4ccccc34)C(=O)NC2=O)c2ccccc21 [bisindolylmaleimide-I]
- CD44 high CD24 low-CSC-like subpopulation by FACS (MDA-MB 231 cells): inhibits CD44 high CD24 low-CSC-like subpopulation
- CD44 high CD24 low-CSC-like subpopulation by FACS (MDA-MB 231 cells; listed as Broad spectrum PKC pathway inhibitor): inhibition of EMT and CSC formation
- PKC-θ chromatin association across the uPAR promoter (ChIP) ([1]; MCF-IM model, bisindolylmaleimide-I 1 μM for 1 hr, then PMA for 60 hours): reduces its chromatin association across the uPAR promoter
- binding of PKC-θ on the CD44 gene promoter (ChIP) ([1]; as worded in Example 13): reduction of binding of PKC-θ on the CD44 gene promoter
